This is an account of results in PubChem BioAssay (NCI).

Molecules are shown by their SMILES. Values joined by “and” are separate entries in the source; they are usually repeats but may differ in a detail not shown here. Equal values may be shown once.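 Tested at 5 concentrations; 48 h exposure; 96-well plates; endpoints linearly interpolated, else capped at highest concentration. The concentration for 50% growth inhibition is given as GI50. TGI marks complete inhibition of growth.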

Assay in all cases: inhibition of tumour cell growth, NCI panel, 48 h
Assay [1] concerns A498 renal.
Assay [2] concerns CAKI-1 renal.
Assay [3] deals with HL-60(TB) leukemia.
For assay [4], the system named is LOX IMVI melanoma.
The subject of assay [5] is MALME-3M melanoma.
The subject of assay [6] is NCI-H522 lung.
The subject of assay [7] is OVCAR-8 ovarian.
The subject of assay [8] is SF-539 CNS.
Assay [9] deals with SNB-19 CNS.
For assay [10], the system named is SR leukemia.

`C=C(Cl)C(Br)(CCl)CCC(Br)C(C)(C)Cl` (centres undefined): the TGI in [1] was 35.3 µM; in assay [2], 8.08 µM and 10.2 µM; in assay [3] it was 5.19 µM; in assay [4], 3.73 µM and 4.22 µM; in [5], 8.51 µM and 4.96 µM; in assay [6] it was 9.26 µM and 6.43 µM. Further, the TGI was found to be 5.69 µM in assay [7], 3.86 µM in assay [8], 8.73 µM in assay [9] and 7.28 µM in assay [10]. The GI50 is 3.69 µM in assay [2]; 1.76 µM in assay [4]; 2.22 µM in assay [5]; 2.82 µM in [6]; 2.26 µM in assay [7]; 1.98 µM in assay [8].

`CCCC(=O)Nc1cc2c3c(c1)CCCN3CCC2`: the TGI in assay [2], in [3], in [4], in assay [5], in [6] and in assay [7] was > 10 µM each time. The TGI in [8], in [9] and in assay [10] was > 10 µM in each case.

As to `CN(C)CC1CCCC/C1=N/OC(=O)c1ccc(Cl)cc1` (centres undefined), the TGI in [1], in [2], in [3], in [4], in assay [5] and in [6] was > 100 µM each time. The TGI in assay [7], in assay [8] and in assay [10] was > 100 µM each time.

Turning to `C1CN2CCN3CCN4CCN1[P+]243`, the TGI in assay [1], in assay [3], in assay [4], in [5], in [6] and in assay [7] was > 100 µM throughout. Further, the TGI in assay [8], in assay [9] and in [10] was > 100 µM in each case.

With `COc1cc2c(cc1OCCCNC(=O)c1cccc3c(=O)c4ccccc4[nH]c13)N=C[C@@H]1CCCN1C2=O`, the GI50 is < 0.01 µM in assay [1]; 0.116 µM in [2]; < 0.01 µM in assay [4]; 0.01 µM in assay [7]; < 0.01 µM in assay [8]; < 0.0206 µM in assay [9]. Moreover, the TGI is 0.0225 µM in [1]; 0.571 µM in assay [2]; > 77 µM in assay [3]; 0.388 µM in [5]; > 33.6 µM in assay [6]; < 0.01 µM in assay [8]. In addition, the results for the TGI in assay [9] and in assay [10] were > 45.7 µM and > 45.4 µM, respectively.

With `Cc1[nH]c2ccccc2c1C(=O)/C=C/c1ccccc1O`, the TGI in assay [1], in assay [2], in [3], in [4], in assay [5] and in assay [6] was > 100 µM throughout. The TGI in [7], in assay [9] and in assay [10] was > 100 µM in each case.

For the compound `CCOc1ccc(NC(=O)CC#N)cc1`, the TGI in [1], in assay [2], in assay [3], in assay [4], in assay [5] and in assay [6] was > 100 µM in each case. Moreover, the TGI in [7], in assay [9] and in assay [10] was > 100 µM throughout.

In the case of `COc1ccc(Nc2nnc(-c3cc(O)ccc3O)s2)cc1`, the GI50 in [1] was > 50 µM; in assay [2], 34.2 µM; in assay [3], 4.57 µM; in assay [4] it was 25.7 µM; in [6] it was 16.1 µM; in [7], 30.4 µM. Besides, the GI50 is 12.6 µM in [8], > 50 µM in assay [9] and 1.41 µM in assay [10]. Besides, the TGI in assay [1], in assay [2], in assay [3], in [4], in [6] and in assay [7] was > 50 µM throughout. For the same compound, the TGI in assay [8] was 25.8 µM; in [9], > 50 µM; in assay [10] it was 34.2 µM.

For the compound `CCC[CH2][Sn]([Cl])([CH2]CCC)[CH2]CCC`, the GI50 in [2] was 0.167 µM; in [3], 0.121 µM; in [4], 0.109 µM; in assay [5], 0.123 µM; in assay [6], 0.116 µM; in assay [7], 0.145 µM. In addition, the results for the GI50 in assay [9] and in assay [10] were 0.174 µM and 0.066 µM, respectively. Further, the TGI in [2] is 1.23 µM; in [3] it was 0.351 µM; in assay [4], 0.234 µM; in assay [5] it was 0.265 µM; in [6], 0.27 µM; in [7], 0.287 µM. The TGI stood at 0.346 µM in assay [9] and 0.596 µM in assay [10].

Take `O=C(/C=C/c1cccc2ccccc12)c1ccccc1Cl`: the TGI came to 29.5 µM in assay [1]; 27.9 µM in assay [2]; 19.4 µM in [3]; 30.2 µM in [5]; 27.5 µM in [6]; 26.7 µM in [7]. Besides, the TGI in assay [8] is 31.9 µM; in assay [9], 27 µM; in [10], 11.3 µM.

With `O=C1/C(=C/c2cccc(Cl)c2Cl)N=C(c2ccccc2)N1C1CC1`, the GI50 is 14.8 µM in [2]; 15.6 µM in assay [3]; 7.11 µM in [4]; 19.8 µM in assay [6]; 26.5 µM in assay [7]; 10.3 µM in assay [8]. Further, the GI50 is 12.7 µM in assay [9] and 21.5 µM in assay [10]. The TGI in assay [2] was 39.5 µM; in assay [3], 41.4 µM; in assay [4], 17.4 µM; in assay [6], > 50 µM; in assay [7], > 50 µM; in [8], 22.3 µM. For the same compound, the figures for the TGI in [9] and in assay [10] were 33.2 µM and > 50 µM, respectively.

For the compound `CCOc1ccccc1NC(=O)C(=O)CC(=O)c1sc(Nc2nnc(-c3ccc(Cl)c(Cl)c3)o2)nc1C`, the TGI in [1], in assay [2], in assay [3], in [4], in assay [5] and in assay [7] was > 100 µM each time. For the same compound, the TGI in assay [8], in assay [9] and in assay [10] was > 100 µM each time.

In the case of `Cc1nn(-c2ccc(Cl)cc2)c2nc3c(nc12)C(=O)c1ccccc1-3`, the GI50 in [1] is 31.7 µM; in [2], > 100 µM; in assay [3], > 100 µM; in [4], > 100 µM; in assay [5], > 100 µM; in assay [6], > 100 µM. In addition, the GI50 in [8], in [9] and in assay [10] was > 100 µM each time. In addition, the TGI in assay [1], in assay [2], in assay [3], in assay [4], in assay [5] and in assay [6] was > 100 µM each time. Moreover, the TGI in [8], in [9] and in assay [10] was > 100 µM throughout.

Take `Oc1cccnc1[Se]`: the TGI in [2], in assay [3], in assay [4], in [5], in [6] and in assay [7] was > 100 µM throughout. The TGI in assay [8], in [9] and in assay [10] was > 100 µM in each case.

As for `CC(C)Oc1ccc2cc(-c3nn(CC4CCNCC4)c4ncnc(N)c34)ccc2c1`, the GI50 in [1] is 14.2 µM; in assay [2], 10.9 µM; in [3] it was 6.45 µM; in assay [4], 16.7 µM; in [6], 11 µM; in [8], 12.3 µM. For the same compound, the GI50 in assay [9] is 12.7 µM; in assay [10], 1.53 µM. For the same compound, the TGI in assay [1] amounted to 28.2 µM; in [2], 22.9 µM; in [3] it was 20.6 µM; in assay [4], 33.8 µM; in [6], 25.4 µM; in assay [8] it was 24.7 µM. For the same compound, the TGI in [9] was found to be 26 µM; in assay [10], 4.44 µM.

As for `CC[C@H]1[C@@H]2C=C[C@@H]3[C@H]4C/C=C\C(=O)NCCC[C@@H]5NC(=O)/C(=C(O)/C=C/[C@@H]4C[C@@H]3[C@H]2C[C@H]1C)C5=O`, the GI50 is 1.67 µM in assay [1]; 1.92 µM in assay [3]; 0.662 µM in [4]; 1.39 µM in [5]; 6.7 µM in assay [6]; 0.333 µM in assay [7]. For the same compound, the values for the GI50 in assay [8], in assay [9] and in assay [10] were 1.3 µM, 1.04 µM and 0.264 µM, respectively. Also, the TGI in [1] is 3.08 µM; in assay [3], 3.99 µM; in assay [4], 1.96 µM; in assay [5] it was 2.83 µM; in [6], 15.7 µM; in assay [7], 1.37 µM. Moreover, the results for the TGI in assay [8], in [9] and in [10] were 2.72 µM, 2.42 µM and 1.94 µM, respectively.
